Data published in patent US20240246935A1 (Plexium, Inc., priority 2021, published 2024).

What was measured:
IKZF1 (Ikaros) = experiment: IKZF1 reporter degradation assay (HEK 293T IKZF1-mNeonGreen reporter cell line); type: cell-based, human; details: HEK 293T IKZF1 reporter cells, 24 hour incubation
Text: (§1) Polycistronic plasmids were constructed for the mammalian expression of fluorescent reporter fusions of human transcription factors IKZF1 (Ikaros), IKZF2 (Helios), and IKZF3 (Aiolos). The respective protein sequences had their C-terminal end joined to a GGGGS linker repeated three times followed by mNeonGreen, P2A sequence, and mScarlet. The DNA sequences of the open reading frames are as follows:
(§2) IKZF1, IKZF2, and IKZF3 constructs were cloned into the UCOE Hygromycin expression vectors (Millipore Sigma). Reporter constructs were transfected using cationic lipid reagents into adherent HEK 293T cells and stable integrants were selected by treatment with 200 μg/mL hygromycin B. Clonal populations were obtained from the population of stable integrants either by limiting dilution or fluorescence activated cell sorting.
(§3) The clonal stable cell lines were maintained under constant 200 μg/mL hygromycin B selection while being passaged for use in the degradation assays. […] The fluorescence intensity of the IKZF1/2/3-mNeonGreen (FITC channel) and mScarlet (PE channel) reporters were routinely analyzed by flow cytometry to confirm consistent expression levels between experiments.
(§4) The IKZF1/IKZF2/IKZF3 degradation assays were carried out by harvesting the HEK 293T reporter cell lines and resuspending the cells in media formulated for reduced background fluorescence (FluoroBrite; Thermo Fisher). The respective cell lines were seeded at a density of 4000 cells/well into black-walled 384-well optical grade assay tissue culture plates. The cells were incubated overnight at 37° C. to allow for attachment to the assay plate. Dilutions of the compounds were prepared in DMSO from 10 mM compound stocks. The assay plates were treated with appropriate concentrations of the compounds by dispensing the DMSO dilutions in quadruplicate wells with an upper limit of 0.5% final DMSO.
(§5) After 24 hour incubation with the compounds, the assay plates were imaged on an ImageXpress Pico microscopy system (cells maintained at 37° C. during imaging) to obtain the fluorescent readouts. The assay plates were imaged in the FITC and Tetramethylrhodamine (TRITC) channels to obtain the mNeonGreen fluorescence intensity (reporter degradation data) and mScarlet fluorescence intensity (for cell segmentation). 293T-IKZF1 and 293T-IKZF3 reporter cell lines were imaged with exposures of 500 milliseconds (ms) for both FITC and TRITC channels, while the 293T-IKZF2 reporter cell line was imaged with exposures of 1000 ms for FITC and 1250 ms for TRITC. The resulting data was analyzed with Cell Reporter Xpress software using the 2-channel cell scoring analysis with a “percent positive” readout. The TRITC channel was selected for the “nuclei” segmentation with a threshold of 20 while the FITC channel was selected for the “Marker 1” segmentation and a threshold of 100 for the IKZF1 and IKZF3 reporter lines. […] The minimum segmentation width was set to 6 micrometers and the maximum segmentation width was set to 15 micrometers for all cell lines. The DCs calculations were determined by regression to best fit four-parameter logistic curves using GraphPad Prism.

IKZF2 (Helios) = experiment: IKZF2 reporter degradation assay (HEK 293T IKZF2-mNeonGreen reporter cell line); type: cell-based, human; details: 24 hour incubation; for IKZF2 % Degradation @ 1 μM: 1 μM compound
Procedure, shortened: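 HEK 293T lines stably expressing each IKZF-GGGGS×3-mNeonGreen-P2A-mScarlet reporter, 4000 cells/well in FluoroBrite medium, treated with compound (≤0.5% DMSO) for 24 h at 37 °C. Imaging measured percent mNeonGreen-positive cells, with mScarlet used for segmentation; DC50 from four-parameter logistic fit.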

IKZF3 (Aiolos) = experiment: IKZF3 reporter degradation assay (HEK 293T IKZF3-mNeonGreen reporter cell line); type: cell-based, human; details: HEK 293T IKZF3 reporter cells, 24 hour incubation
Text: as §1, §2, §3, §4, §5

GSPT1 = GSPT1 (Homo sapiens (Human), UniProt P15170+Q96SW2); experiment: GSPT1 reporter degradation assay (HEK293 hGSPT1 HiBiT-tagged cells); type: cell-based; details: 24 hour incubation
Chain of GSPT1 (P15170 whole entry): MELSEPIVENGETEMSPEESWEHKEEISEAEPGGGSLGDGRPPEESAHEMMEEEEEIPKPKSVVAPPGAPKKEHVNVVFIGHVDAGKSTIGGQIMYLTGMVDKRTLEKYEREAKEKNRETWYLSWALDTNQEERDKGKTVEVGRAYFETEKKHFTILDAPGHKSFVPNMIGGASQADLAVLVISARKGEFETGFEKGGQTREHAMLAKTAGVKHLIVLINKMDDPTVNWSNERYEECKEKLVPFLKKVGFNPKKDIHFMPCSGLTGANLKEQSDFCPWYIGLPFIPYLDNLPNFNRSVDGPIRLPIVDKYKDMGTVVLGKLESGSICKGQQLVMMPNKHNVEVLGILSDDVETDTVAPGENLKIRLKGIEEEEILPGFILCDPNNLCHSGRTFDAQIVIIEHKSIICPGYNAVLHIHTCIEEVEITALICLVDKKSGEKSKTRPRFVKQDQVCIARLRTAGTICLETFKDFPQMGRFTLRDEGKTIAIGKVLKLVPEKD
Chain of GSPT1 (Q96SW2 whole entry): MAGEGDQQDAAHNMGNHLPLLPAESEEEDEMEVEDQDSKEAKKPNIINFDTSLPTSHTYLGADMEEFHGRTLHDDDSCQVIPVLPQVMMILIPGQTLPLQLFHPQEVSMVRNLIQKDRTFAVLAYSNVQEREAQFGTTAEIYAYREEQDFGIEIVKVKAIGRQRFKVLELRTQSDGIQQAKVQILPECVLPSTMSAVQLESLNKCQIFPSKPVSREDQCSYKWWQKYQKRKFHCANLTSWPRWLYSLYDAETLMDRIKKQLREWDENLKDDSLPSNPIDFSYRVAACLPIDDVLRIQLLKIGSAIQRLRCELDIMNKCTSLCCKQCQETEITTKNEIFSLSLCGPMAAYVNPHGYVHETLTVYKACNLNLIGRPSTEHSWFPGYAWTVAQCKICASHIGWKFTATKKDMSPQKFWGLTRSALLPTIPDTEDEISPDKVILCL
Chain of GSPT1 (Q16531 whole entry partner): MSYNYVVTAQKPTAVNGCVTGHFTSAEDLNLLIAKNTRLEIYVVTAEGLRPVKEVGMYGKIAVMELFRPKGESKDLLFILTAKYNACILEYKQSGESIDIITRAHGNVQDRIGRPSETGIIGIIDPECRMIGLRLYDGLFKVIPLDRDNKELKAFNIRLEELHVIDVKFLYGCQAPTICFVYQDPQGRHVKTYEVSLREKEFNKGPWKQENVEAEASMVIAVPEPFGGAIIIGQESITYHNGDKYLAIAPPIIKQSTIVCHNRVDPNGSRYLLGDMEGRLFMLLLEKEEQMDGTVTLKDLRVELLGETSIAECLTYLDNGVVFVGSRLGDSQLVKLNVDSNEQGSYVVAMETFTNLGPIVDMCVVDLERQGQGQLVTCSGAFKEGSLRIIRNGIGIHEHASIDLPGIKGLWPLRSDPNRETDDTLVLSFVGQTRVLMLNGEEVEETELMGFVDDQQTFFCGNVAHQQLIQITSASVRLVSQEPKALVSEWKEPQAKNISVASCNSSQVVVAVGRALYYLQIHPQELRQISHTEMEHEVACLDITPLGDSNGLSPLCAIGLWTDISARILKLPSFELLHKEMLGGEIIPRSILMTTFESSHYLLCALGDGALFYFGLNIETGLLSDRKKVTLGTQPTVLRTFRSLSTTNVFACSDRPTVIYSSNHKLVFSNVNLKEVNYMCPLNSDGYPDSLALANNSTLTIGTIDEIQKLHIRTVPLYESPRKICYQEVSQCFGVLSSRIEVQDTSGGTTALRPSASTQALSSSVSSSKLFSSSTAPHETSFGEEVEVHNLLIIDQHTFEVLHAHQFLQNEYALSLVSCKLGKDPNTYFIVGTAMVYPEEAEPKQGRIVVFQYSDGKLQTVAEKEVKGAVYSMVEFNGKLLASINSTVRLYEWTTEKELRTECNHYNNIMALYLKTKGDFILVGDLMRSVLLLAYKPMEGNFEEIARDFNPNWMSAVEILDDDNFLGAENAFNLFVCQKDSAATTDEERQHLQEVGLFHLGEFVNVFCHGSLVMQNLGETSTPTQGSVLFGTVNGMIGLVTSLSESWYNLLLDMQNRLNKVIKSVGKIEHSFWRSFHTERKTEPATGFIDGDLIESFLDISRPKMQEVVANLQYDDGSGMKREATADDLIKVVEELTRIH
Description: HEK293_hGSPT1_HiBiT-tagged cells were generated using CRISPR-Cas12a technology. Briefly, ˜400,000 HEK293 cells were transiently co-transfected with precomplexed ribonuclear proteins (RNPs) consisting of 80 pmol of crRNA (IDT), 62 pmol of Cas12a protein (IDT), 3 μg of ssODN donor (IDT; AltR® modifications), 78 pmol of electroporation enhancer (IDT), and 200 ng of pMaxGFP (Lonza). The transfection was performed via nucleofection (Lonza, 4D-Nucleofector X-unit) using solution P3 and program CM-130 in a (20 μL) cuvette. Five days post-nucleofection, cells were single-cell-sorted for GFP+(transfected) cells by FACs in 96-well plates and clonally selected. Clones were screened and verified for the desired modification via targeted deep sequencing using gene-specific primers with partial Illumina adapter overhangs as previously described. In brief, clonal cell pellets were harvested, lysed, and used to generate gene-specific amplicons with partial Illumina adapters in PCR #1. Amplicons were indexed in PCR #2 and pooled with other targeted amplicons for other loci to create sequence diversity. Additionally, 10% PhiX sequencing control V3 (Illumina) was added to the pooled amplicon library prior to running the sample on a Miseq Sequencer System (Illumina) to generate paired 2×250 bp reads. Samples were demultiplexed using the index sequences, fastq files were generated, and NGS analysis was performed using CRIS.py. Final clones were authenticated using the PowerPlex fusion system (Promega) and tested negative for mycoplasma by the MycoAlert™Plus mycoplasma detection kit (Lonza).
Editing construct sequences and screening primers are outlined below (sequence from 5′ to 3′). hGSPT1Cas12acrRNA, CAGE635.GSPT1.g1: […] (SEQ ID NO: 4); CAGE635.g1.anti.ssODN: ttcctcacagtattgtgcagggtcatcaagaaaatgctta[…] CAGCCGCTCACgtcCttctctggaaccagtttcagaacttttccaattgcaatggtcttacctagaaatgaaattttaa (HiBiT tag and silent blocking modifications to prevent Cas12a recutting after integration are in upper case) (SEQ ID NO: 5); CAGE635.hGSPT1.DS.F: […] (SEQ ID NO: 6); CAGE635.hGSPT1.DS.R: GTGAA GTAGGCTTCTGCAGTC (SEQ ID NO: 7).
The GSPT1 degradation assay was carried out by harvesting the HEK 293T reporter cell lines and resuspending the cells in media formulated for reduced background fluorescence (FluoroBrite; Thermo Fisher). The respective cell lines were seeded at a density of 8,000 cells/well into white-opaque 384-well optical grade assay tissue culture plates (Greiner 781080-20). The cells were incubated overnight at 37° C. to allow for attachment to the assay plate. Dilutions of the compounds were prepared in DMSO from 10 mM compound stocks. Test compounds were added in a 10-point dilution series (typically 10 μM to […]) using a TECAN D300e Digital Dispenser with an upper limit of 0.5% final DMSO. Plates were centrifuged at 320×g for 2 minutes at room temperature, and subsequently incubated at 37° C.
After 24 hour incubation with the compounds, the plates were allowed to cool to room temperature for 10 minutes. 30 μL of HiBiT lytic buffer+1:50 HiBiT substrate Solution were added to each well. Plates were centrifuged at 320×g for 2 minutes at room temperature and then incubated with shaking at room temperature for 10 minutes covered with foil. Plates were read on a CLARIOstar microplate reader (BMG LabTech), measuring at 450 nm (donor emission) and 610 nm or 630 nm (acceptor emission). The DC50 values were determined by regression to best fit four-parameter logistic curves using GraphPad Prism.

Row | Structure (SMILES) | DC50 (IKZF1 (Ikaros)) | DC50 (IKZF2 (Helios); HEK 293T IKZF2 reporter cells) | DC50 (IKZF3 (Aiolos)) | DC50 (GSPT1) | IKZF2 % Degradation @ 1 μM (IKZF2 (Helios); HEK 293T IKZF2 reporter cells) | IKZF2 % Degradation @ 1 μM (IKZF2 (Helios); HEK 293T IKZF2-mNeonGreen reporter)
1 | O=C1CCC(N2Cc3cc(O[C@H]4CCCC[C@@H]4N4CCC(c5ccccc5)C4)ccc3C2=O)C(=O)N1 (stereo partly drawn) [Compound 1, 3-(1-oxo-5-(((1S,2S)-2-(3-phenylpyrrolidin-1-yl)cyclohexyl)oxy)isoindolin-2-yl)piperidine-2,6-dione] | > 30 µM | 0.024 µM | > 30 µM | > 30 µM | 79.9% | –
2 | O=C1CCC(N2Cc3cc(O[C@@H]4CCCC[C@@H]4N4CC(c5ccccc5)C4)ccc3C2=O)C(=O)N1 (stereo partly drawn) [Compound 13, 3-(1-oxo-5-(((1R,2S)-2-(3-phenylazetidin-1-yl)cyclohexyl)oxy)isoindolin-2-yl)piperidine-2,6-dione] | > 30 µM | > 30 µM | > 30 µM | – | – | –
3 | O=C1CC[C@H](N2Cc3cc(O[C@H]4CCCC[C@@H]4N4CC(c5ccccc5)C4)ccc3C2=O)C(=O)N1 [Compound 10, (S)-3-(1-oxo-5-(((1S,2S)-2-(3-phenylazetidin-1-yl)cyclohexyl)oxy)isoindolin-2-yl)piperidine-2,6-dione] | > 30 µM | 0.006 µM | > 30 µM | > 30 µM | 78.7% | –
4 | O=C1CCC(N2Cc3cc(O[C@@H]4CCCC[C@H]4N4CC(c5ccccc5)C4)ccc3C2=O)C(=O)N1 (stereo partly drawn) [Compound 11, 3-(1-oxo-5-(((1R,2R)-2-(3-phenylazetidin-1-yl)cyclohexyl)oxy)isoindolin-2-yl)piperidine-2,6-dione] | > 30 µM | > 30 µM | > 30 µM | – | – | –
5 | O=C1CCC(N2Cc3cc(O[C@H]4CCCC[C@@H]4N4CC(c5ccc(-n6cccn6)cc5)C4)ccc3C2=O)C(=O)N1 (stereo partly drawn) [Compound 31, 3-(5-(((1S,2S)-2-(3-(4-(1H-pyrazol-1-yl)phenyl)azetidin-1-yl)cyclohexyl)oxy)-1-oxoisoindolin-2-yl)piperidine-2,6-dione] | > 30 µM | 0.0005 µM | > 30 µM | – | 83.3% | –
6 | O=C1CCC(N2Cc3cc(O[C@H]4CCCC[C@@H]4N4CC(c5ccc(F)c(F)c5)C4)ccc3C2=O)C(=O)N1 (stereo partly drawn) [Compound 23, 3-(5-(((1S,2S)-2-(3-(3,4-difluorophenyl)azetidin-1-yl)cyclohexyl)oxy)-1-oxoisoindolin-2-yl)piperidine-2,6-dione] | > 30 µM | 0.005 µM | > 30 µM | > 30 µM | 79.2% | –

More lines, main results first:

Row | DC50 (IKZF1 (Ikaros)) | DC50 (IKZF2 (Helios); HEK 293T IKZF2 reporter cells) | DC50 (IKZF3 (Aiolos)) | DC50 (GSPT1) | Structure (SMILES) | IKZF2 % Degradation @ 1 μM (IKZF2 (Helios); HEK 293T IKZF2 reporter cells) | IKZF2 % Degradation @ 1 μM (IKZF2 (Helios); HEK 293T IKZF2-mNeonGreen reporter)
7 | > 30 µM | 0.005 µM | > 30 µM | – | O=C1CCC(N2Cc3cc(O[C@H]4CCCC[C@@H]4N4CC(c5ccccc5F)C4)ccc3C2=O)C(=O)N1 (stereo in doubt) [Compound 27] | 82.1% | –
8 | > 30 µM | 0.004 µM | > 30 µM | – | COc1ccccc1C1CN([C@H]2CCCC[C@@H]2Oc2ccc3c(c2)CN(C2CCC(=O)NC2=O)C3=O)C1 (stereo partly drawn) [Compound 19, 3-(5-(((1S,2S)-2-(3-(2-methoxyphenyl)azetidin-1-yl)cyclohexyl)oxy)-1-oxoisoindolin-2-yl)piperidine-2,6-dione] | 84.5% | –
9 | > 30 µM | 0.004 µM | > 30 µM | – | O=C1CCC(N2Cc3cc(O[C@H]4CCCC[C@@H]4N4CC(c5ccccc5Cl)C4)ccc3C2=O)C(=O)N1 (stereo partly drawn) [Compound 15, 3-(5-(((1S,2S)-2-(3-(2-chlorophenyl)azetidin-1-yl)cyclohexyl)oxy)-1-oxoisoindolin-2-yl)piperidine-2,6-dione] | 78.9% | –
10 | > 30 µM | 0.292 µM | > 30 µM | – | O=C1CC[C@H](N2Cc3cc(O[C@@H]4CCCC[C@H]4N4CC(c5ccccc5)C4)ccc3C2=O)C(=O)N1 [Compound 14, (S)-3-(1-oxo-5-(((1R,2R)-2-(3-phenylazetidin-1-yl)cyclohexyl)oxy)isoindolin-2-yl)piperidine-2,6-dione] | 33.5% | –
11 | – | – | – | > 30 µM | O=C1CCC(N2Cc3cc(O[C@H]4CCCC[C@@H]4N4CC(c5ccccc5)C4)ccc3C2=O)C(=O)N1 (stereo partly drawn) [Compound 127, 3-(1-oxo-5-(((1S,2S)-2-(3-phenylazetidin-1-yl)cyclohexyl)oxy)isoindolin-2-yl)piperidine-2,6-dione] | – | 77.9%
